One data set relates to Cp-NLuc. In words: C. parvum -static versus -cidal washout assay. In kind it is cell-based, Cryptosporidium parvum. The method, then: To determine -static versus -cidal activity, the infection assay was conducted as described, but infected cells were treated with compounds for 30 min up to 24 h. The compounds were removed after the designated times, and infection was quantified at 72 h post-infection. To determine the activity of the compounds against asexual and sexual stages of the parasite, compounds were added for 4 h windows at times corresponding to asexual or sexual development. Parasite proliferation was then determined at 72 h post-infection. For all assays, each sample was run in triplicate, and three biological replicates were performed.

Another data set is described as follows: in vitro. The class given is in vitro ADME. As to conditions: plasma. As for the experimental part: Plasma stability assay. The plasma stability assay was performed in duplicate by incubating each selected compound (1 µmol/L final concentration) in normal mouse (CD-1) or human plasma (Innovative Research, Novi, MI, USA) at 37 °C.
Data set [1] has as its system C. parvum. In words: C. parvum growth inhibition assay (Cp-NLuc-infected HCT-8 cells). In kind it is cell-based, Cryptosporidium parvum. The note with it: Cryptosporidium parvum. As for the experimental part:
C. parvum growth inhibition assays: The in vitro growth inhibition assay of C. parvum has been previously described. Briefly, clear-bottom, white-sided 96 well plates were seeded with HCT-8 cells. Once the cells reached between 50% and 75% confluency, they were infected with Cp-NLuc oocysts (10,000/well) in complete media containing 0.6% taurocholate. At 24 h post-infection (hpi), the infected cells were treated with compounds at various concentrations. DMSO was used as a vehicle control in parallel. Parasite growth was determined at 72 hpi by measuring relative luminescence units (RLUs) using Promega Nano-Glo substrate (Promega, Madison, WI, USA) and a SpectraMax® L Microplate Reader (Molecular Devices, San Jose, CA, USA). The percent inhibition of parasite growth was calculated as [(RLUDMSO − RLUcompound)/RLUDMSO] × 100.

In data set [2] the test system is C. parvum. The data set is described as follows: Inhibition of C. parvum infection in IFNγ −/− mice. The class given is in vivo, C57BL/6 IFNγ −/− mice. As to conditions: 4 mg/kg oral gavage every 12 h, four doses, days 5 and 6 post-infection, AUC of RLUs/gram feces. The method, then:
Inhibition of C. parvum infection in IFN-gamma knock-out (IFNγ −/−) mice: Twelve female C57BL/6 IFNγ −/− mice (4 weeks old) from the Jackson Laboratory were housed in a controlled environment with a 12 h light/dark cycle and access to food and water ad libitum. Cp-NLuc oocysts were isolated from infected mouse feces and purified using a sodium chloride density gradient. Mice were inoculated via oral gavage with a suspension of 10^4 oocysts in 50 µL sterile PBS. On days 5 and 6 post-infection, mice were treated with 4 mg/kg of oidiolactone A or DMSO vehicle control every 12 h for a total of four doses (6 mice per treatment group). Fecal samples were collected daily and stored at −20 °C until analysis. Feces were homogenized in a lysis buffer solution, centrifuged, and the supernatant was incubated with Nano-Glo® substrate in a 96-well plate, as previously described. Luminescence was measured in a microplate reader immediately after substrate addition. Oocyst shedding, measured in RLUs/gram of feces, was plotted over time, and the area under the curve was determined for each mouse. Mice were sacrificed 14 days post-infection, and serum was collected for biochemical analysis. Biochemical analyses were performed using the Beckman Coulter AU480 automated analyzer (Beckman Coulter, Brea, CA, USA) at the Clinical Pathology Laboratory, Veterinary Medical Center, University of Minnesota.

The subject of data set [3] is C. parvum intracellular stages. In words: C. parvum immunofluorescence assay. The class given is cell-based, Cryptosporidium parvum. As to conditions: 7.5 µM, 20 h. As for the experimental part:
C. parvum and T. gondii immunofluorescence assays (IFAs): IFAs were conducted as previously described with modifications. For C. parvum IFAs, HCT-8 cells were seeded on 4-well chamber cell culture glass slides (CELLTREAT Scientific Product, Pepperell, MA, USA). At confluency, the cell monolayers were infected with 5 × 10^5 wild-type (WT) C. parvum oocysts prepared as previously described. Slides were spun at 1000 rpm for 3 min to allow oocysts to have full contact with the cell monolayers. At 4 hpi, 7.5 µM oidiolactone A or DMSO control, diluted in medium containing 0.6% taurocholic acid, was added to the infected cells for 20 h. At 24 hpi, the slides were fixed with 4% paraformaldehyde and permeabilized with 0.25% Triton-X. The slides were then blocked with 10% goat serum in 1x PBS. C. parvum intracellular stages were visualized with Sporo-glo (Waterborne inc., New Orleans, LA, USA). The slides were mounted using VECTASHIELD® PLUS Antifade Mounting Medium with DAPI (Vector Laboratories, Inc., Newark CA, USA). Representative images of the samples were taken using the Nikon AX R confocal microscope and Nikon Elements acquisition software. Image processing was performed using Fiji v1.54p.

A short description of data set [4]: Microsomal stability assay, mouse. As to conditions: microsomes, pH 7.4. The method, then:
Microsomal stability assay. The in vitro microsomal stability assay was conducted in duplicate in commercially available mouse or human liver microsomes (Sekisui XenoTech, Kansas City, KS, USA), which were supplemented with nicotinamide adenine dinucleotide phosphate (NADPH) as a cofactor. […] The reaction was initiated by the addition of 1 mmol/L NADPH, followed by incubation at 37 °C. A negative control was performed in parallel without NADPH to reveal any chemical instability or non-NADPH dependent enzymatic degradation for each compound. […] At various time points (0, 5, 15, 30, and 60 min), a 40 µL of reaction aliquot was taken and quenched with 120 µL of acetonitrile containing 0.1% formic acid. The samples were then vortexed and centrifuged at 15,000 rpm for 5 min at 4 °C. The supernatants were collected and analyzed by LC-MS/MS to determine the in vitro metabolic half-life (t1/2).

Molecules are shown by their SMILES. Like-named read-outs stand apart in the source and are kept apart here.

In the data set with Cp-NLuc (Cryptosporidium parvum), `CO[C@H]1OC(=O)C=C2[C@@]13O[C@@H]3[C@H]1OC(=O)[C@@]3(C)CCC[C@@]2(C)[C@@H]13` [compound 1, oidiolactone A] gave an EC90 of 7500 nM. Also, in the data set with Cp-NLuc (at EC90 7.5 µM, compound washed out, read 72 h post-infection), the “treatment time after which C. parvum did not recover (killing time)” value lay within 8 to 12 h. Besides, the half-life at 1 µmol/L was 1.76 ± 0.0283 h in the data set “in vitro” (CD-1, mouse, 1 µmol/L, 37 °C, mean ± SD, read-out: Mouse Plasma Stability t½); less than 2 h in “in vitro” (CD-1, mouse, discussion, read-out: half-life in mouse blood plasma); 0.2917 ± 0.00167 h in “in vitro” (human, 37 °C, mean ± SD, read-out: Human Plasma Stability t½); 1.84 ± 0.0717 h in data set [4]. Besides, the 50% effective concentration (EC50) was determined as 530 nM with C. parvum [1] (HCT-8, read-out: EC50 against C. parvum) and 529 nM in the data set on C. parvum [1] (Cp-NLuc-infected HCT-8 cells, 7.5 µM to 117 nM, Figure 2E, read-out: C. parvum EC50). Besides, the “reduction in C. parvum oocyst shedding” value in the data set on C. parvum [2] stood at 70%. Further, in data set [3], the “abundance of treated C. parvum parasites by IFA” value was “much lower abundances”.

For orientation: EC90 means the concentration at which the effect reaches the 90% level. Read a low EC90 as greater potency. The EC50 is the concentration at which the effect is half-maximal.

Values taken from publication PMC12654037, “Norditerpene Natural Products from Subterranean Fungi with Anti-Parasitic Activity” (Microorganisms, 2025).
